# In patent publication US11684614B2, “Formulations of hydroxypyridonate actinide/lanthanide decorporation agents” (priority 2017, dated 2023):
# Assay: 3,4,3-LI(1,2-HOPO)-excipient compatibility study (visual observation, HPLC purity and impurities on storage)
# Type: physicochemical
# Conditions: for 3L1O Purity / Total Impurities: n = 1
# Experimental: The objective of the analytical study described in this report was to evaluate the interactions between 3,4,3-L1(1,2-HOPO) and selected pharmaceutical excipients under 25° C./60% RH and 40° C./75% RH conditions over eight weeks. Physical appearance and potency of the different samples were assessed at T=0, 2, 4, and 8 weeks through visual observations and high performance liquid chromatography (HPLC) analysis.
# The stability of 3,4,3-L1(1,2-HOPO) was tested according to the conditions listed below in TABLE 1.1. A11 test samples were stored throughout the study in 40 mL clear USP Type 1 glass vials (28 mm OD×95 mm height; 24 mm screw cap), wrapped in aluminum foil.
# • Test Samples: Each test mixture was prepared by weighing the desired quantity of 3,4,3-L1(1,2-HOPO) and excipient (both screened through sieve #40) into vials. Both ingredients were first mixed using a clean glass rod and then vortexed. At each time interval, one vial was withdrawn from each drug-excipient series along with the corresponding placebo preparation and tested as described below.
# b. Sample Characterization • Visual Observation: For each sample solution, visual observation consisted in recording color and physical form.
# c. Chromatographic Assay and Purity Assessment • Standard Stock Solutions: For each standard stock solutions, the test article was weighed (200 mg) and dissolved by sonication into 30 mL of diluent (water:acetonitrile=90%:10%). After equilibration at room temperature, the volume of the standard solution was adjusted to 50 mL. Standard stock solutions were prepared in duplicates, working standard solutions were prepared by dilution of each stock with the diluent to the desired concentrations. • Calibration Standards: With each experiment, 5 calibration standard solutions at different concentrations were prepared from stock solutions using the diluent. Concentrations of the calibration standards were between 1.6 and 2.4 mg/mL. […] The vials were then mechanically shaken for 15 minutes, followed by centrifugation of the sample solutions (10,000 rpm, 10 min), and the supernatants were used for the assay. • Placebo Preparation: 25 mL of diluent was added to each of the placebo vial. The vials were then mechanically shaken for 15 minutes, followed by centrifugation of the sample solutions (10,000 rpm, 10 min), and the supernatants were used for the assay. Analytical Method: Instrument: Waters Alliance 2695 liquid chromatography system Column: Agilent, Eclipse XDB-C18, 4.6×150 mm, 5 μm. Mobile Phase A: 0.05% formic acid in 95% H2O: 5% ACN Mobile Phase B: 0.05% formic acid in acetonitrile (ACN)
# Column Temperature: 25° C. Flow Rate: 1.0 mL/min. Injection Volume: 10 μL Detection: 250 nm Run Time: 50 min Diluent: 9:1 H2O:ACN Analysis Sequence:
# • Suitability Requirements: There should be no interference from the diluent/blank at the retention times of 3,4,3-L1(1,2-HOPO) peaks. The relative standard deviation (% RSD) for five replicate system suitability injections should be below 2.0%. The response factor of the second standard should be within 95-105%. The correlation coefficient (R2) of the system linearity standards should be higher than 0.990. 5. Results
smiles,measurement,setting,value
"O=C(NCCCN(CCCCN(CCCNC(=O)c1cccc(=O)n1O)C(=O)c1cccc(=O)n1O)C(=O)c1cccc(=O)n1O)c1cccc(=O)n1O [3,4,3-L1(1,2-HOPO)]","Stability of 3,4,3-L1(1,2-HOPO)","25° C./60% RH and 40° C./75% RH, over 8 weeks",stable over 8 weeks
same,Unknown Impurity RRT 0.24,"25° C./60% RH, 2 Weeks",0.03 % w/w
same,Unknown Impurity RRT 0.58,"25° C./60% RH, 2 Weeks",0.05 % w/w
same,Unknown Impurity RRT 0.59,"25° C./60% RH, 2 Weeks",0.05 % w/w
same,Unknown Impurity RRT 0.62,"25° C./60% RH, 2 Weeks",0.05 % w/w
same,Unknown Impurity RRT 0.87,"25° C./60% RH, 2 Weeks",0.12 % w/w
same,Unknown Impurity RRT 0.89,"25° C./60% RH, 2 Weeks",0.03 % w/w
same,Unknown Impurity RRT 1.02,"25° C./60% RH, 2 Weeks",0.08 % w/w
same,Unknown Impurity RRT 1.11,"25° C./60% RH, 2 Weeks",0.05 % w/w
same,Unknown Impurity RRT 1.27,"25° C./60% RH, 2 Weeks",0.36 % w/w
same,Unknown Impurity RRT 1.3,"25° C./60% RH, 2 Weeks",0.22 % w/w
same,Unknown Impurity RRT 1.39,"25° C./60% RH, 2 Weeks",0.07 % w/w
same,Unknown Impurity RRT 1.41,"25° C./60% RH, 2 Weeks",0.03 % w/w
same,Unknown Impurity RRT 1.46,"25° C./60% RH, 2 Weeks",0.08 % w/w
same,Unknown Impurity RRT 2.31,"25° C./60% RH, 2 Weeks",0.05 % w/w
same,Unknown Impurity RRT 2.6,"25° C./60% RH, 2 Weeks",0.04 % w/w
same,Unknown Impurity RRT 2.8,"25° C./60% RH, 2 Weeks",0.03 % w/w
same,3L1O Purity,"25° C./60% RH, 2 Weeks",98.67 % Area
same,Total Impurities,"25° C./60% RH, 2 Weeks",1.33 % Area
same,Unknown Impurity RRT 0.24,"25° C./60% RH, 4 weeks",0.03 % w/w
same,Unknown Impurity RRT 0.58,"25° C./60% RH, 4 weeks",0.07 % w/w
same,Unknown Impurity RRT 0.6,"25° C./60% RH, 4 weeks",0.05 % w/w
same,Unknown Impurity RRT 0.62,"25° C./60% RH, 4 weeks",0.05 % w/w
same,Unknown Impurity RRT 0.87,"25° C./60% RH, 4 weeks",0.14 % w/w
same,Unknown Impurity RRT 0.89,"25° C./60% RH, 4 weeks",0.02 % w/w
same,Unknown Impurity RRT 1.03,"25° C./60% RH, 4 weeks",0.04 % w/w
same,Unknown Impurity RRT 1.11,"25° C./60% RH, 4 weeks",0.05 % w/w
same,Unknown Impurity RRT 1.27,"25° C./60% RH, 4 weeks",0.28 % w/w
same,Unknown Impurity RRT 1.3,"25° C./60% RH, 4 weeks",0.26 % w/w
same,Unknown Impurity RRT 1.39,"25° C./60% RH, 4 weeks",0.07 % w/w
same,Unknown Impurity RRT 1.41,"25° C./60% RH, 4 weeks",0.01 % w/w
same,Unknown Impurity RRT 1.46,"25° C./60% RH, 4 weeks",0.09 % w/w
same,Unknown Impurity RRT 1.72,"25° C./60% RH, 4 weeks",0.05 % w/w
same,Unknown Impurity RRT 2.3,"25° C./60% RH, 4 weeks",0.05 % w/w
same,Unknown Impurity RRT 2.59,"25° C./60% RH, 4 weeks",0.04 % w/w
same,Unknown Impurity RRT 2.79,"25° C./60% RH, 4 weeks",0.03 % w/w
same,3L1O Purity,"25° C./60% RH, 4 weeks",98.66 % Area
same,Total Impurities,"25° C./60% RH, 4 weeks",1.34 % Area
same,Unknown Impurity RRT 0.24,"25° C./60% RH, 8 Weeks",0.04 % w/w
same,Unknown Impurity RRT 0.58,"25° C./60% RH, 8 Weeks",0.07 % w/w
same,Unknown Impurity RRT 0.59,"25° C./60% RH, 8 Weeks",0.05 % w/w
same,Unknown Impurity RRT 0.62,"25° C./60% RH, 8 Weeks",0.06 % w/w
same,Unknown Impurity RRT 0.87,"25° C./60% RH, 8 Weeks",0.15 % w/w
same,Unknown Impurity RRT 0.89,"25° C./60% RH, 8 Weeks",0.02 % w/w
same,Unknown Impurity RRT 1.03,"25° C./60% RH, 8 Weeks",0.08 % w/w
same,Unknown Impurity RRT 1.11,"25° C./60% RH, 8 Weeks",0.05 % w/w
same,Unknown Impurity RRT 1.27,"25° C./60% RH, 8 Weeks",0.41 % w/w
same,Unknown Impurity RRT 1.3,"25° C./60% RH, 8 Weeks",0.23 % w/w
same,Unknown Impurity RRT 1.39,"25° C./60% RH, 8 Weeks",0.07 % w/w
same,Unknown Impurity RRT 1.41,"25° C./60% RH, 8 Weeks",0.01 % w/w
same,Unknown Impurity RRT 1.46,"25° C./60% RH, 8 Weeks",0.09 % w/w
same,Unknown Impurity RRT 1.73,"25° C./60% RH, 8 Weeks",0.06 % w/w
same,Unknown Impurity RRT 2.31,"25° C./60% RH, 8 Weeks",0.07 % w/w
same,Unknown Impurity RRT 2.6,"25° C./60% RH, 8 Weeks",0.05 % w/w
same,Unknown Impurity RRT 2.8,"25° C./60% RH, 8 Weeks",0.03 % w/w
same,3L1O Purity,"25° C./60% RH, 8 Weeks",98.47 % Area
same,Total Impurities,"25° C./60% RH, 8 Weeks",1.53 % Area
same,Unknown Impurity RRT 0.24,"40° C./75% RH, 2 Weeks",0.06 % w/w
same,Unknown Impurity RRT 0.58,"40° C./75% RH, 2 Weeks",0.07 % w/w
same,Unknown Impurity RRT 0.59,"40° C./75% RH, 2 Weeks",0.06 % w/w
same,Unknown Impurity RRT 0.62,"40° C./75% RH, 2 Weeks",0.06 % w/w
same,Unknown Impurity RRT 0.81,"40° C./75% RH, 2 Weeks",0.02 % w/w
same,Unknown Impurity RRT 0.87,"40° C./75% RH, 2 Weeks",0.13 % w/w
same,Unknown Impurity RRT 0.89,"40° C./75% RH, 2 Weeks",0.07 % w/w
same,Unknown Impurity RRT 1.02,"40° C./75% RH, 2 Weeks",0.07 % w/w
same,Unknown Impurity RRT 1.11,"40° C./75% RH, 2 Weeks",0.06 % w/w
